Each structure is given as a SMILES string. “And” between values parts separate entries of the source, which are not always exact repeats. Equal values may be shown once.

What is called viability is a read-out of living cells in per cent, often relative to untreated cells. Usually IC50 stands for the point on the concentration scale where inhibition reaches its midpoint.

In data set [1] the target is T1, METTL3 (Homo sapiens, UniProt Q86U44).
T1 construct: METTL3–14 degradation up to 70% of the endogenous level; endogenous in cells; host or cells: MOLM-13, PC3, DU145
Nature of the data set: Cellular degradation assay (Western blot), METTL3 in MOLM-13. The data set is classed as cell-based. Conditions: MOLM-13, 24 h, 2 μM compound. An outline of the steps: (§1)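 Treat cells 24h with PROTAC (vehicle: 0.1% DMSO); lyse in RIPA with protease inhibitors; run SDS-PAGE and immunoblot METTL3/METTL14; quantify bands by densitometry.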
For orientation: Immunoblotting shows a protein as a band on a membrane.

For data set [2], the target named is T2, ternary complex CRBN/PROTAC/METTL3–14 (Homo sapiens, UniProt Q86U44+Q96SW2).
T2 construct: methyltransferase domains (MTD) of METTL3 (residues 354–580); His6 (N, cleaved yes); made in house; host or cells: METTL3-MTD/METTL14-MTD: baculovirus/Sf9; CRBN-TBD: E. coli Rosetta (DE3), co-expressed with BirA
The experiment in a line: FRET-based ternary complex formation assay (TCFA). The data set is classed as binding. To be noted: for TCFA amplitude (mean ± SEM): Hook curve amplitude, fraction of the maximum of compound 16; for ECmax (nM) ± SD: PROTAC concentration at the maximum of the signal in the TCFA; for ECmax: TCFA, peak of the Hook curve. The gist of the method: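 HTRF/TR-FRET measurement of PROTAC-induced complex between GST-tagged METTL3–14 and biotinylated CRBN^TBD-Avi (10 nM final) with 0.8 nM Eu^3+ anti-GST antibody, in 50 mM HEPES pH 7.5, 150 mM NaCl, 0.1% BSA, 100 mM KF. Emission ratio used; ECmax and Hook-curve amplitude taken from Gaussian fit or highest-signal data point.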

Data set [3] in a line: Cell viability assay (CellTiter-Glo) on MOLM-13. The format is cell-based. To be noted: human, MOLM-13 cells, average of two biological replicates; for viability at 72 h, […]: 2.5 µM. The gist of the method: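 MOLM-13 AML cells grown in RPMI 1640 with 10% FBS at 37 °C, 5% CO2. Viability read as ATP luminescence by CellTiter-Glo after 10 min at room temperature, with background from cell-free medium wells subtracted.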
A general note: ATP-based viability assays read luminescence as a measure of living cells.

Data set [4] concerns METTL14. The experiment in a line: Cellular degradation assay (Western blot), METTL14 in MOLM-13. The format is cell-based, human. To be noted: MOLM-13, 24 h, 2 μM compound. An outline of the steps: as §1
Data set [5] deals with T3, METTL3-14 (Homo sapiens, UniProt Q86U44). The experiment in a line: biochemical. Further details: with the full-length complex, the recombinant complex construct pFastBacDual-StrepII-GFP-TEV-METTL3-His-TEV-METTL14 was expressed; StrepII (N); GFP (N); TEV site (N); made in house; host or cells: baculovirus/Sf9 insect cells. Conditions: inhibition of catalytic activity of METTL3-14, binary FRET assay. The gist of the method:
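Full-length human METTL3–METTL14 complex (StrepII-GFP-METTL3-His/METTL14) expressed in baculovirus/Sf9 cells and purified. Inhibition of METTL3 methyltransferase activity measured in a homogeneous time-resolved fluorescence (HTRF) enzyme assay; IC50 determined.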
Target sequence in this assay (Q86U44 whole entry): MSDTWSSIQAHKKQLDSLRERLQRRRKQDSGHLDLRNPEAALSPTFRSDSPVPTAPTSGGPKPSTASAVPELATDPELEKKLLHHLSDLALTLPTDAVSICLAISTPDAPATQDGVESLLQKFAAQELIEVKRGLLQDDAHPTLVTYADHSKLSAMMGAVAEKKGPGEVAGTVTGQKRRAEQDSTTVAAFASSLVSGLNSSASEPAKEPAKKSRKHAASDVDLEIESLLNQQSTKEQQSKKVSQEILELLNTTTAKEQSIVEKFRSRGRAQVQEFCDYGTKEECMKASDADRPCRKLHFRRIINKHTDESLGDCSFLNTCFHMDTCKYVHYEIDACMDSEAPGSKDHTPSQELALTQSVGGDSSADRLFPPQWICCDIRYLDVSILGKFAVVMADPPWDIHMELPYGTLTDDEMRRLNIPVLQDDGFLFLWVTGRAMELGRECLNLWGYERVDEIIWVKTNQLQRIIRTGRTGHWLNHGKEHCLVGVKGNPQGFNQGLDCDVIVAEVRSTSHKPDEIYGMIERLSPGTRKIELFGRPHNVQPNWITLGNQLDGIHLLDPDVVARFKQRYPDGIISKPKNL
Target sequence in this assay (Q9HCE5 whole entry, further chain): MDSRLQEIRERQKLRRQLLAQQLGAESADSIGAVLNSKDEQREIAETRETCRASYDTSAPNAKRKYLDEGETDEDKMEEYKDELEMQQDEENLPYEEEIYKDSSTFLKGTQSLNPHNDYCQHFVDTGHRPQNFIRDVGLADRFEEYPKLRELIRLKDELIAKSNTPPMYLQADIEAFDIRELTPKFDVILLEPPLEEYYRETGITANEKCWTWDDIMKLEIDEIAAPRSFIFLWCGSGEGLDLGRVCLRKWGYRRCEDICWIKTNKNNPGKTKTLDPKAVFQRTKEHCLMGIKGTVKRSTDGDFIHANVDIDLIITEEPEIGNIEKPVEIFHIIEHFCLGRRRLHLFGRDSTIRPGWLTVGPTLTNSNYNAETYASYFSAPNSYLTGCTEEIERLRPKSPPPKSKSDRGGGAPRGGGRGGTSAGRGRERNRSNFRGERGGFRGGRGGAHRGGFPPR

The target in data set [6] is T3, METTL3-14. The experiment in a line: Cellular degradation assay (Western blot), METTL3 and/or METTL14 (METTL3–14) in MOLM-13. Further details: METTL3–14 degradation up to 70% of the endogenous level; endogenous in cells; host or cells: MOLM-13, KASUMI-1, THP-1, NOMO-1. The data set is classed as cell-based. Conditions: MOLM-13, 2 μM, 24 h, Western blot. How it is done: MOLM-13, NOMO-1, THP-1, Kasumi-1, PC3, and DU145 cell lines were obtained from DSMZ-German Collection of Microorganisms and Cell Cultures GmbH. […] All cell lines were tested negative for mycoplasma contamination (PCR-based assay by Microsynth, Switzerland).
METTL3 (and METTL14) protein degradation was monitored by Western blot. Cells were treated with the indicated concentration of PROTACs or DMSO control (0.1% (v/v)) for 24h, 37 °C with 5% CO2. […] After SDS-PAGE, proteins were transferred to a nitrocellulose membrane, blocked (with 5% milk, 0.5% BSA in TBST buffer), and incubated overnight with primary antibodies. […] Densitometry was performed in Image Studio Lite software and analyzed in GraphPad Prism 9.
Target sequence in this assay (Q86U44 2-580 limits assumed): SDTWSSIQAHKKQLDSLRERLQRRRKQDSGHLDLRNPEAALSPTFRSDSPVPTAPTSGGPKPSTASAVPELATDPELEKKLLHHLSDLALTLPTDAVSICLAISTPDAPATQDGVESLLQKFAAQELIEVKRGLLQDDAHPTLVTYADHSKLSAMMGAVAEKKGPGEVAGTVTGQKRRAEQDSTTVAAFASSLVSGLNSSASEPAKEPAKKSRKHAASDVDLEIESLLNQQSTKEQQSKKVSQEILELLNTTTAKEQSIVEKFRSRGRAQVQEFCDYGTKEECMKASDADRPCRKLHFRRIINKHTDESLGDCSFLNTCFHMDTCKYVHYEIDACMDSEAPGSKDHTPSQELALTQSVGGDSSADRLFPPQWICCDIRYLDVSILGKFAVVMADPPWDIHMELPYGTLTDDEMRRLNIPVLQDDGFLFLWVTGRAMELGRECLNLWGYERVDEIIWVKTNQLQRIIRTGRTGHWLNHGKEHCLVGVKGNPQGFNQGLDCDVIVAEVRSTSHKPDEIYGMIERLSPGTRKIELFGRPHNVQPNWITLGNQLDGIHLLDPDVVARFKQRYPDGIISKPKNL
Target sequence in this assay (Q9HCE5 whole entry partner): as the sequence (Q9HCE5 whole entry, further chain) above

T1 sequence (Q86U44 2-580 limits assumed): as the sequence (Q86U44 2-580 limits assumed) above
T1 sequence (Q9HCE5 whole entry partner): as the sequence (Q9HCE5 whole entry, further chain) above
T2 sequence (Q86U44 354-580): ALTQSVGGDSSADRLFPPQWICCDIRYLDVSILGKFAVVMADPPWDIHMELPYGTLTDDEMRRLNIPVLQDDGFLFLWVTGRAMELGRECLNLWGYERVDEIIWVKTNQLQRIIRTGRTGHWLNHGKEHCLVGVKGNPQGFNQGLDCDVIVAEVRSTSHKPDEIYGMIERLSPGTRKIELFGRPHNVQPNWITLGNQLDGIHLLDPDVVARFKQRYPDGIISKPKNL
T2 sequence (Q9HCE5 107-395 partner limits assumed): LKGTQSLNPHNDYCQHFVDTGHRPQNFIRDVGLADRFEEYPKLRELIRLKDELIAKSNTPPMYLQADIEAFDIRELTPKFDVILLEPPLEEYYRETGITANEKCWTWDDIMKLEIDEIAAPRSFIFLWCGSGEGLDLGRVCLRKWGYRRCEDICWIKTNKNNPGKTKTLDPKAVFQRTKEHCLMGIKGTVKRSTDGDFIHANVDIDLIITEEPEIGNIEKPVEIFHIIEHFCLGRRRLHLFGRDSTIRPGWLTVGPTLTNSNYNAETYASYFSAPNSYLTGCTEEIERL
T2 sequence (Q96SW2 318-442): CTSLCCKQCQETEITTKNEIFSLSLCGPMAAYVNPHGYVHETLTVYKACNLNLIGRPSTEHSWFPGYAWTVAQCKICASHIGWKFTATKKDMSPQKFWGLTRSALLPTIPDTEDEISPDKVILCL

Consider `CC1(C)CCN(Cc2cc(F)c(N3CC(=O)NC4(CCN(c5cc(NCc6cn(CCCCCCCCCCC(=O)Nc7cccc8c7CN(C7CCC(=O)NC7=O)C8=O)nn6)ncn5)CC4)C3)cc2F)CC1` (stereo not shown) [Compound 27], for which, in data set [1], the “MOLM-13 West. blot at 24h 2 μM comp conc. Degradation (%) of METTL3” value (“MOLM-13 West. blot … (%) of METTL3” below) was 12% and 12 ± 43%. For the same molecule, in data set [2], the “TCFA amplitude (mean ± SEM)” value is on record as 0.7 ± 0.0 and the “ECmax (nM) ± SD” value stood at 1100 ± 330 nM. Further, in data set [3], the viability at 72 h, 0.6 µM was determined as 95.2%; the viability at 72 h, 1.25 µM stood at 88.7%; the viability at 72 h, […] worked out at 92.6%; the viability at 72 h, 5 µM was determined as 95.5%. Moreover, the viability at 72 h, 10 µM in data set [3] stood at 90.9%. Moreover, in data set [4], the “MOLM-13 West. blot at 24h 2 μM comp conc. Degradation (%) of METTL14” value (from here on “MOLM-13 West. blot … (%) of METTL14”) was “/ (Degradation <10% or stabilization)”. For the same molecule, the IC50 in data set [5] stood at 610 ± 230 nM.

As to `CC1(C)CCN(Cc2cc(F)c(N3CC(=O)NC4(CCN(c5cc(NCCN6CCN(C(=O)CCCNc7cccc8c7C(=O)N(C7CCC(=O)NC7=O)C8=O)CC6)ncn5)CC4)C3)cc2F)CC1` (stereo not shown) [Compound 29], the “MOLM-13 West. blot … (%) of METTL3” value in data set [1] came to 42 ± 14%. In data set [6], the “degradation of METTL3 and/or METTL14” value was ≥ 50%. In data set [2], the “TCFA amplitude (mean ± SEM)” value came out at 1.0 ± 0.0, the “ECmax (nM) ± SD” value was 80 ± 0 nM and the ECmax result is recorded as “submicromolar”. Also, in data set [3], the viability at 72 h, 0.6 µM stood at 93.7%; the viability at 72 h, 1.25 µM is 93.5%; the viability at 72 h, […] is 93.4%; the viability at 72 h, 5 µM came to 94.5%. In addition, the viability at 72 h, 10 µM in data set [3] was determined as 87.4%. The “MOLM-13 West. blot … (%) of METTL14” value in data set [4] is 51 ± 11%.

For `CC1(C)CCN(Cc2cc(F)c(N3CC(=O)NC4(CCN(c5cc(NCCN6CCN(C(=O)CCCCCCCNc7cccc8c7C(=O)N(C7CCC(=O)NC7=O)C8=O)CC6)ncn5)CC4)C3)cc2F)CC1` (stereo not shown) [Compound 31], the “MOLM-13 West. blot … (%) of METTL3” value in data set [1] is recorded as 49 ± 33%. In addition, in data set [6], the “degradation of METTL3 and/or METTL14” value is on record as ≥ 50%. In addition, in data set [2], the “TCFA amplitude (mean ± SEM)” value is listed as 0.9 ± 0.0, the “ECmax (nM) ± SD” value turned out to be 110 ± 40 nM and the ECmax result is listed as “submicromolar”. Moreover, in data set [3], the viability at 72 h, 0.6 µM is 95.4%; the viability at 72 h, 1.25 µM was found to be 88.3%; the viability at 72 h, […] was determined as 88%; the viability at 72 h, 5 µM came out at 85.2%. Also, in data set [3], the viability at 72 h, 10 µM is 80.2%. In addition, in data set [4], the “MOLM-13 West. blot … (%) of METTL14” value is listed as 55 ± 24%.

Turning to `CC1(C)CCN(Cc2cc(F)c(N3CC(=O)NC4(CCN(c5cc(NCCN6CCN(c7cccc8c7C(=O)N(C7CCC(=O)NC7=O)C8=O)CC6)ncn5)CC4)C3)cc2F)CC1` (stereo not shown) [Compound 32], the “MOLM-13 West. blot … (%) of METTL3” value in data set [1] was “/ (Degradation <10% or stabilization)”. In addition, in data set [6], the “degradation of METTL3 and/or METTL14” value was “inactive”. Further, in data set [2], the “activity / signal in the ternary complex formation assay” value was “inactive” and the “ECmax (nM) ± SD” value is reported as “– ^b”. In data set [3], the viability at 72 h, 0.6 µM is 106%; the viability at 72 h, 1.25 µM was 106%; the viability at 72 h, […] came out at 103%; the viability at 72 h, 5 µM amounted to 91.5%. Further, in data set [3], the viability at 72 h, 10 µM turned out to be 74.6%. Besides, the “MOLM-13 West. blot … (%) of METTL14” value in data set [4] is recorded as “/ (Degradation <10% or stabilization)”.

Turning to `CN1C(=O)CCC(N2C(=O)c3cccc(NCCCCCC(=O)N4CCC(CNc5cc(N6CCC7(CC6)CN(c6cc(F)c(CN8CCC(C)(C)CC8)cc6F)CC(=O)N7)ncn5)CC4)c3C2=O)C1=O` (stereo not shown) [me-24], the “degradation of METTL3 and/or METTL14” value in data set [6] was “did not show any METTL3–14 degradation”.

Source of the values: PMC10900215 (JACS Au, 2024).
